Test [1] in a line: T. cruzi growth inhibition in host cells, dose response, cell-based, plate reader, dry powder, set 2 (AID 652275). It is filed as functional.
Test [2] deals with NS3 (Hepatitis C virus, UniProt A3EZJ3). The experiment in a line: HCV NS3 helicase inhibitor potency, dose response, biochemical, fluorescence polarization, ChemBridge library (AID 743264). (In general: Polarisation of emitted light reports the rotation of a fluorescent probe.)
Test [3] is described as follows: human group III sPLA2 inhibitors, dose response, biochemical, QFRET, IC50 (AID 743457).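 Further: green fluorescence rise as the enzyme cleaves BODIPY PC-A2 in liposomes; potency for inhibition of the enzyme.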
Test [4] concerns the target T1, Polyadenylate-binding protein 1 (Homo sapiens, UniProt P11940). The experiment in a line: PABP1 MLLE–PAM2 binding inhibitor potency, dose response, biochemical, fluorescence polarization, FITC-PAM2 peptide (AID 602259). The format is functional. Conditions: read-out: IC50_Mean.
In test [5] the target is T1, Polyadenylate-binding protein 1. The experiment in a line: PABP1 MLLE–PAM2 interaction inhibitors, dose response, miRNA deadenylation inhibitor project, biochemical, fluorescence polarization, Cy5-PAM2 peptide, secondary (AID 602260). The settings on record: read-out: IC50_Mean. The format is functional.
A short description of test [6]: LGR2 antagonists, dose response, cell-based, HEK293, CRE-luciferase reporter, cherry pick (AID 743342). It is filed as functional. For orientation: A reporter such as luciferase makes a cellular process visible.
Test [7] in a line: A549 cell cytotoxicity, dose response, cytotoxicity control, plate reader, cherry-pick, antagonist series (AID 743412). It is filed as functional, cell-based.
For test [8], the system named is A549. The experiment in a line: A549 cell toxicity, dose response, cytotoxicity control, plate reader, cherry-pick samples (AID 687028). The settings on record: Homo sapiens. It is filed as functional, cell-based.
Test [9] addresses Disintegrin and metalloproteinase domain-containing protein 17 (Homo sapiens, UniProt P78536). The experiment in a line: exosite inhibitors of ADAM17, dose response, biochemical (AID 743260).
The nature of test [10]: ADAM10 protease inhibitors, dose response, selectivity assay for ADAM17 exosite inhibitor project, biochemical, FRET peptide substrate, recombinant human ADAM10 (AID 743259).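 Further: ADAM10 enzyme cleaving a FRET peptide substrate.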
Test [11] is described as follows: HEK293 Cytotoxicity Assay Measured in Cell-Based System Using Plate Reader - 7071-01_Inhibitor_Dose_CherryPick_Activity_Set2. It is filed as functional.
Test [12] has as its system HeLa. The experiment in a line: HeLa cell cytotoxicity, dose response, cytotoxicity control, ATP luminescence, cherry-pick samples (AID 687004). It is filed as functional, cell-based. Conditions: Homo sapiens.
Test [13] has as its system HEK293. The experiment in a line: HEK293T cell cytotoxicity, dose response, cytotoxicity control, ATP luminescence, cherry-pick samples (AID 687005).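 Further: cells exposed to compound for 48 hours.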 It is filed as functional, cell-based. Conditions: Homo sapiens.
Test [14] addresses T2, Small ubiquitin-related modifier 2 (Homo sapiens, UniProt P61956). The experiment in a line: inhibitors of SUMO2 protein-protein interaction, dose response, selectivity assay for SUMO1 interaction inhibitor project, biochemical, FRET, human SUMO2, uHTS hits (AID 624384). It is filed as functional. The settings on record: read-out: IC50_Mean.
The target of test [15] is T3, Fatty acid synthase (Homo sapiens, UniProt P49327). The experiment in a line: FAS thioesterase domain inhibitors, dose response, biochemical, endpoint fluorescence intensity, uHTS hits (AID 624327).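 Further: fluorescence from hydrolysis of an O-methyl fluorescein acyl ester substrate by the enzyme.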 The format is functional.
T3 sequence (P49327 whole entry, the tested form may be a part): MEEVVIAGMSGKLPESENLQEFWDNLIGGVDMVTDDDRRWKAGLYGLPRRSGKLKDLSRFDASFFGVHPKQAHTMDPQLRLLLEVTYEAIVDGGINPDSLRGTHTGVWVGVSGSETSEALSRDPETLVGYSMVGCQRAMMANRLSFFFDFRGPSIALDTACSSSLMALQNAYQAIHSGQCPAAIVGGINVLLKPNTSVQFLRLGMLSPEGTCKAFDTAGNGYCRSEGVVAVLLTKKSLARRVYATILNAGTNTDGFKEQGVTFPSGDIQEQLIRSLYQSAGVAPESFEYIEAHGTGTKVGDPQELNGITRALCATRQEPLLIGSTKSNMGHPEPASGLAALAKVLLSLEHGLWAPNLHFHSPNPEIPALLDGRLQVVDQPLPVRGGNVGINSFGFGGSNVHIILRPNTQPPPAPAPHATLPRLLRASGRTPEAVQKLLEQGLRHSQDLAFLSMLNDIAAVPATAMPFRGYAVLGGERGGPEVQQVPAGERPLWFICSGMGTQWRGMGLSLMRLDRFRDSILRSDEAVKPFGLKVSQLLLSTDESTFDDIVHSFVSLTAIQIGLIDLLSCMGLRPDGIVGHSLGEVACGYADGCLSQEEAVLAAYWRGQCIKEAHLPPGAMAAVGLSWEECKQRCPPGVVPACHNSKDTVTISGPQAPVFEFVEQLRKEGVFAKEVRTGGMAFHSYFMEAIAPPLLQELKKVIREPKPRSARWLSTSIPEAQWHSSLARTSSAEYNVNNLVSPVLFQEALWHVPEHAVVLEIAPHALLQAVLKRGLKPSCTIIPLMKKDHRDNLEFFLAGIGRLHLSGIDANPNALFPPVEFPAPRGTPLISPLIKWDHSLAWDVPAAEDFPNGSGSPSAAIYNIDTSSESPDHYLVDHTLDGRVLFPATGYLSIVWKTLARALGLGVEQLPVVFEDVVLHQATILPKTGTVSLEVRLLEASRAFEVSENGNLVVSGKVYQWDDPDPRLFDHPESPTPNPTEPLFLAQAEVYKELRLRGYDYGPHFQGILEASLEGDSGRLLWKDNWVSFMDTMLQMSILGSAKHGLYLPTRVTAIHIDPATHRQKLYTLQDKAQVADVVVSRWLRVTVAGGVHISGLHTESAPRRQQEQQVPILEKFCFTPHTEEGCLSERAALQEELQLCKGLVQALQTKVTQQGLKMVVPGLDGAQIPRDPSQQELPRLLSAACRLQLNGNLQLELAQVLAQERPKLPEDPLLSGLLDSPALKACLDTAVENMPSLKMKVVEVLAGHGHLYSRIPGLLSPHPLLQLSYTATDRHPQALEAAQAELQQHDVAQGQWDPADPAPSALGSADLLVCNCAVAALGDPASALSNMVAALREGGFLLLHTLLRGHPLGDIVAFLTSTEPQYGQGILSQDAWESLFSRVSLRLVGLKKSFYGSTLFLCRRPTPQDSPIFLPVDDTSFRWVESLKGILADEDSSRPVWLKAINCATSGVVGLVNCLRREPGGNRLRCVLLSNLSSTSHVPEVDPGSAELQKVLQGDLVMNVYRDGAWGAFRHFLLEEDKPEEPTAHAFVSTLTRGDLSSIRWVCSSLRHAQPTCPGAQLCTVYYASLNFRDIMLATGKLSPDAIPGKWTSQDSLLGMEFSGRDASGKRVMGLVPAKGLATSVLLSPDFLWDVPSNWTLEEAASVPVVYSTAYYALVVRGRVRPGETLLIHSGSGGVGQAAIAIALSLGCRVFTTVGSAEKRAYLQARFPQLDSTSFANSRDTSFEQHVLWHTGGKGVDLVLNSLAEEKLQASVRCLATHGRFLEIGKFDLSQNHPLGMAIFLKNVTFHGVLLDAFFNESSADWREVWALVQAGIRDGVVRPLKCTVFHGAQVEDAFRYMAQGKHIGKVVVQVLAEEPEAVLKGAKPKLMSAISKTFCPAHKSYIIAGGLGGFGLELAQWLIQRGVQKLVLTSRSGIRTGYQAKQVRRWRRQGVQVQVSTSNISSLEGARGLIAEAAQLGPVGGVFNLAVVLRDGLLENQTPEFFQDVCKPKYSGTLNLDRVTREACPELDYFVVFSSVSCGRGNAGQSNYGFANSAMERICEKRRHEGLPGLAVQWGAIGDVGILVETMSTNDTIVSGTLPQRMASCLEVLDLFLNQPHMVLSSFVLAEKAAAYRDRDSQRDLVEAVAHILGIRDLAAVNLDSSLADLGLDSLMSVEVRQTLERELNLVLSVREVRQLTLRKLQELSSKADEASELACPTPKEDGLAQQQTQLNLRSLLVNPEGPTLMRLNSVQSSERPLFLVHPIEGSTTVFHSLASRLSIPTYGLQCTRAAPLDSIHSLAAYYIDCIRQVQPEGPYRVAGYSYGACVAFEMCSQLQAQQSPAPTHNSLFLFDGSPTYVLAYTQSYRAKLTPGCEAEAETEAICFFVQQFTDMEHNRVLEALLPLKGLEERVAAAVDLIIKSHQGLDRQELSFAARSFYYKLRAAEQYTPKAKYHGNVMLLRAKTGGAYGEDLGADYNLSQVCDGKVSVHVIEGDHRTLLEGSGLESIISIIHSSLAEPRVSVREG
Test [16] addresses T4, Sentrin-specific protease 8 (Homo sapiens, UniProt Q96LD8).
T4 sequence (Q96LD8 whole entry): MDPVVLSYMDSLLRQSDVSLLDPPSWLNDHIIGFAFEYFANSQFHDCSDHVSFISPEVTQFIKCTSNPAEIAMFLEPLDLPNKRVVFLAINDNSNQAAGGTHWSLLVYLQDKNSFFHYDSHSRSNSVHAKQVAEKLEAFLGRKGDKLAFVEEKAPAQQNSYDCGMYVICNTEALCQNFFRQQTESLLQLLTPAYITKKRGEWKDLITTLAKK
It is filed as functional.

Test [17] addresses T4, Sentrin-specific protease 8. The format is functional. The source holds these as a separate data set.
Test [18] deals with T5, Histone-lysine N-methyltransferase NSD2 (Homo sapiens, UniProt O96028).
T5 sequence (O96028 whole entry): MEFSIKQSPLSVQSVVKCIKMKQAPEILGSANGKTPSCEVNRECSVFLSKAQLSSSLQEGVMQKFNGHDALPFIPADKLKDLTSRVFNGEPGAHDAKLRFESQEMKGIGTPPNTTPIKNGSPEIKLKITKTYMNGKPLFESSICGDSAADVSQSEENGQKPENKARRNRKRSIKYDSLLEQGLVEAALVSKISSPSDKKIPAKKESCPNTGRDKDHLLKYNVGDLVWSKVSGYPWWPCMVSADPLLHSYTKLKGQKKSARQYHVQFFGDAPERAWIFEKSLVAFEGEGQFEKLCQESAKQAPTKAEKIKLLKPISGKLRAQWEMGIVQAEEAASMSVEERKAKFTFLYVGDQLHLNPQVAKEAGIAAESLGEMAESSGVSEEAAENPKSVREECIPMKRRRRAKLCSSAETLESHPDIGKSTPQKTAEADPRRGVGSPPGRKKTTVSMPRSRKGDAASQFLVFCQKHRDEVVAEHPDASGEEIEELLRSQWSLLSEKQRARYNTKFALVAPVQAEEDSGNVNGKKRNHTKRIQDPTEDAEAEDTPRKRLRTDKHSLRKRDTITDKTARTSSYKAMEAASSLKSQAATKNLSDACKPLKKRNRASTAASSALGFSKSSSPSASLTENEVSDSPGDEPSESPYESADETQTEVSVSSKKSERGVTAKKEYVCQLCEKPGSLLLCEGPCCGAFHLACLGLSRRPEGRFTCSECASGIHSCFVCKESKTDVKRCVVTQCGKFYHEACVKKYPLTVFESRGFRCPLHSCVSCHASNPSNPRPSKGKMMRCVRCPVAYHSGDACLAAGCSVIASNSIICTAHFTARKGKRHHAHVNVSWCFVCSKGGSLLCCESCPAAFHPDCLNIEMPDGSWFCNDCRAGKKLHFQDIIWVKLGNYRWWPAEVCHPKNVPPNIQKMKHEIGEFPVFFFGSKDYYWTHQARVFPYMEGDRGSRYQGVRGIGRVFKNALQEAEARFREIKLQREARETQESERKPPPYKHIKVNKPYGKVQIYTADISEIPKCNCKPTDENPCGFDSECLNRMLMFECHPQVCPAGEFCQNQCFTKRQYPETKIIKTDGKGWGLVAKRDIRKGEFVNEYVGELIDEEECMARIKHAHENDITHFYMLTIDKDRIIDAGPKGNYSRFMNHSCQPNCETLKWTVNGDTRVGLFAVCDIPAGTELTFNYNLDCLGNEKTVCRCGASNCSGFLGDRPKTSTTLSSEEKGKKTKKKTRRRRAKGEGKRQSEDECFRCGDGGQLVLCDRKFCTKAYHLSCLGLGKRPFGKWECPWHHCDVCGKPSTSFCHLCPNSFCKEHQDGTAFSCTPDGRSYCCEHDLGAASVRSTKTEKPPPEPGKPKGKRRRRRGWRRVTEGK
It is filed as biochemical.

In test [19] the target is Genome polyprotein (dengue virus type 2, UniProt P29990). Put plainly: Dengue-2 NS5 methyltransferase inhibitors, primary screen, biochemical, confirmation dose response (AID 588689). The format is functional.
The target of test [20] is Matrix metalloproteinase-14 (Homo sapiens, UniProt P50281). Put plainly: Dose Response confirmation of uHTS hits for a small molecule inhibitors of MT1-MMP activation in a fluorescence assay set 1. It is filed as functional.
Test [21] has as its target T2, Small ubiquitin-related modifier 2. The experiment in a line: SUMO2–SIM peptide binding inhibitors, dose response, selectivity assay for SUMO1 interaction inhibitor project, biochemical, fluorescence polarization, uHTS hits (AID 624385). It is filed as functional. The settings on record: read-out: IC50_Mean.
Test [22] has as its target Nonstructural protein 1 (Influenza A virus, UniProt Q194T2). It is filed as functional, Influenza A virus (A/California/07/2009(H1N1)).
The target of test [23] is T6, Small ubiquitin-related modifier 1 (Homo sapiens, UniProt P63165). The experiment in a line: inhibitors of SUMO1 peptide binding, dose response, biochemical, fluorescence polarization, uHTS hits (AID 624382). Conditions: read-out: IC50_Mean. The format is functional.
T6 sequence (P63165 whole entry, the tested form may be a part): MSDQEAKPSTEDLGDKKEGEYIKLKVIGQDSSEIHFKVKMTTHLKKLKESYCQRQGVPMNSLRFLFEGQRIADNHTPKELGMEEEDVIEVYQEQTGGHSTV
For test [24], the target named is T3, Fatty acid synthase. The experiment in a line: FAS thioesterase domain inhibitors, dose response, biochemical, kinetic fluorescence intensity (AID 624326).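 Further: rate of fluorescence rise from hydrolysis of a fluorogenic O-methyl fluorescein ester substrate.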 The format is functional.
For test [25], the target named is T6, Small ubiquitin-related modifier 1. The experiment in a line: inhibitors of SUMO1 partner interactions, dose response, biochemical, FRET (AID 624383). The format is functional. The settings on record: read-out: IC50_Mean.
Test [26] concerns the target ORF 73 (Human herpesvirus 8, UniProt O40947). Put plainly: inhibitors of C-LANA binding to LBS DNA, dose response, biochemical, fluorescence polarization, cherry-picked samples (AID 504725).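 Further: fluorescence polarization of a labeled DNA duplex reporting LANA DNA binding; potency is for inhibitors that block LANA binding to the DNA.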 The arrangement: species or system Human gammaherpesvirus 8.
The target of test [27] is T7, Rac GTPase-activating protein 1 (Homo sapiens, UniProt Q9H0H5).
T7 sequence (Q9H0H5 whole entry): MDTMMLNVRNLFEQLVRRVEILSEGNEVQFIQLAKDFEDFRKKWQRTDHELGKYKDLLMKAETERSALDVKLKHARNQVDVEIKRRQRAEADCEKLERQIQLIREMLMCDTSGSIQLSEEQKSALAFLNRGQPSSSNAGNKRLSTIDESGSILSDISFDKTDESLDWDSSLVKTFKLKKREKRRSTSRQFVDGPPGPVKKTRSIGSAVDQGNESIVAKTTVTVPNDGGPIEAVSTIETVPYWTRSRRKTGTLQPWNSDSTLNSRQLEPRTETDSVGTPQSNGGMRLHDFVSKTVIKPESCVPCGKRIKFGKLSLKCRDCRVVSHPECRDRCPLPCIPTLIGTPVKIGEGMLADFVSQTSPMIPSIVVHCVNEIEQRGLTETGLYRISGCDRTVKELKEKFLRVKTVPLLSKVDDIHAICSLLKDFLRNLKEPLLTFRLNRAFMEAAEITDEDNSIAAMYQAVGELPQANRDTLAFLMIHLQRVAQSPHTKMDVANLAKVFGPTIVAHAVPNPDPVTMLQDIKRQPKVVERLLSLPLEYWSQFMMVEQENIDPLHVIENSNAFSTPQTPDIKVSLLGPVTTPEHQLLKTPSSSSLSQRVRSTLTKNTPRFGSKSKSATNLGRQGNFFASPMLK
Put plainly: MgcRacGAP GTPase-activating activity inhibitors, confirmation, biochemical, ADP Hunter fluorescence, primary and confirmatory (AID 624330). The format is functional.

The source made the active and inactive calls.

This passage reports AC50 and IC50 results from ChEMBL document CHEMBL1201862, “PubChem BioAssay data set” (2004).

T1 sequence (P11940 whole entry): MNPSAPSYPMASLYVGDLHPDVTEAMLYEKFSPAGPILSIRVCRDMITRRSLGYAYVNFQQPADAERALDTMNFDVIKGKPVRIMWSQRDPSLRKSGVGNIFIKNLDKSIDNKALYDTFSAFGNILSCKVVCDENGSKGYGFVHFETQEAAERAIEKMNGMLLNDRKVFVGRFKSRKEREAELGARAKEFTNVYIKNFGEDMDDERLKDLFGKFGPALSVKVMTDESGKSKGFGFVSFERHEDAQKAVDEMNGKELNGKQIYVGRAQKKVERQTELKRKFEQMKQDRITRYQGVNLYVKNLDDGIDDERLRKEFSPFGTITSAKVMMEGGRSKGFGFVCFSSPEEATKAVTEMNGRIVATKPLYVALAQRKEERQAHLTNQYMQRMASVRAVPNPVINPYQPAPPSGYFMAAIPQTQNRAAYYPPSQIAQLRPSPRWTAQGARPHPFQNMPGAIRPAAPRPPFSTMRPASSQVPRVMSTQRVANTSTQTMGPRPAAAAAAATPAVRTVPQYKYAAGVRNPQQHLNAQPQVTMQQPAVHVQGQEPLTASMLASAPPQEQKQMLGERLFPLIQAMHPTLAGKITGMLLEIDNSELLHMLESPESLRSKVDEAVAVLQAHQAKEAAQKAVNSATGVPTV
T2 sequence (P61956 whole entry, the tested form may be a part): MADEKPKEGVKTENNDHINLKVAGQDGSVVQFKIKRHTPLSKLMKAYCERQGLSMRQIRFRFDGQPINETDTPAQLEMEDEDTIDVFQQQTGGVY
Chain of ORF 73 (O40947 whole entry): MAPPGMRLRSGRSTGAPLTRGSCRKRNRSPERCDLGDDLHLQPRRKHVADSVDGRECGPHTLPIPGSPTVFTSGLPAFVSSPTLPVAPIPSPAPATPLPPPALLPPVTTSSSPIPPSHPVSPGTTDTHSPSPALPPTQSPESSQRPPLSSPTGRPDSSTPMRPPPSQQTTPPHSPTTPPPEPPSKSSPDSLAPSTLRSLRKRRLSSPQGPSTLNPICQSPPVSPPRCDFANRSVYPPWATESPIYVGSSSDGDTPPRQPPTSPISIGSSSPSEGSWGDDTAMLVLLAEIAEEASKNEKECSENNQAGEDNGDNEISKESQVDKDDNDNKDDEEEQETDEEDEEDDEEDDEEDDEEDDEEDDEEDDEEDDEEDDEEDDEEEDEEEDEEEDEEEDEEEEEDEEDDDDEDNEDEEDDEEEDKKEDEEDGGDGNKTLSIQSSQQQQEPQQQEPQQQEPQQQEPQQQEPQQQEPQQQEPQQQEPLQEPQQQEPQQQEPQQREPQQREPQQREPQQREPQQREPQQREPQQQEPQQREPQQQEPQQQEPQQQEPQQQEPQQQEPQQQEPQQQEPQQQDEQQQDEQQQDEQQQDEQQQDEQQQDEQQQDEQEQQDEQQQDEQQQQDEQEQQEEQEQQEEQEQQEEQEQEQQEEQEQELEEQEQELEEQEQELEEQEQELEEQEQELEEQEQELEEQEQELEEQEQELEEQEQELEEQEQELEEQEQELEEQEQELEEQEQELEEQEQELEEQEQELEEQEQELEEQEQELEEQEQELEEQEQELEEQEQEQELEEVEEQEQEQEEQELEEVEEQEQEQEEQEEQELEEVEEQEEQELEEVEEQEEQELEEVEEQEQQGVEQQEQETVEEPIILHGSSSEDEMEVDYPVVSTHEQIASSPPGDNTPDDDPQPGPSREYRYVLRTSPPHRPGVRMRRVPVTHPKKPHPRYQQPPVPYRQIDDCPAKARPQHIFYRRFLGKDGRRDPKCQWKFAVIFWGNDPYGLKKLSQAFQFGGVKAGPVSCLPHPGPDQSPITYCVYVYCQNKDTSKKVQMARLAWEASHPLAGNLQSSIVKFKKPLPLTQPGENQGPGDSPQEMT
Chain of Nonstructural protein 1 (Q194T2 whole entry): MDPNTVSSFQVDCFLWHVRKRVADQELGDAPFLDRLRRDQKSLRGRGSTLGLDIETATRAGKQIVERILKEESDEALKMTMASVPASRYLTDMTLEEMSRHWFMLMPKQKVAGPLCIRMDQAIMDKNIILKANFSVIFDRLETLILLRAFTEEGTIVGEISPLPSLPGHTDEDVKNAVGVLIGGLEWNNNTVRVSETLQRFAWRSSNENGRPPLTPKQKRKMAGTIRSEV

Take `CN(C)CC#Cc1cccc(-c2nc(C(=O)N[C@@H]3CCN(Cc4ccccc4)C3)cc3c2[C@@H](CCO)N([S+]([O-])C(C)(C)C)C3)c1` (some centres not stated): the AC50 in test [1] was 0.0256 µM (active).
Take `Cc1ccc(N2C(=O)NC(=O)/C(=C/c3ccc(-c4cccc(C(=O)O)c4)o3)C2=O)cc1`: the IC50 in test [2] is 14.8 µM (inactive).
Take `Cc1ccc(NC(=S)N/N=C2/CCCCc3ccccc32)cc1`: the results for the IC50 in [3], in test [4] and in test [5] were > 122 µM (inactive), > 66 µM (inactive) and > 66 µM (inactive), respectively.
Consider `C[C@H]1CCCCO[C@@H](CN(C)C(=O)Nc2ccc3c(c2)OCO3)[C@@H](C)CN([C@@H](C)CO)C(=O)c2cc(NC(=O)NC3CCCCC3)ccc2O1`, for which the figures for the AC50 in test [6] and in [7] were 16.9 µM (active) and 35.3 µM (active), respectively.
Consider `C[C@H]1CCCCO[C@H](CN(C)C(=O)Nc2ccc(C(F)(F)F)cc2)[C@@H](C)CN([C@@H](C)CO)C(=O)c2cc(NC(=O)C3CCCCC3)ccc2O1`, for which the half-maximal activity concentration (AC50) in [8] was 20.8 µM (active).
With `CCOc1ccc(S(=O)(=O)Nc2ccc(F)cc2)c(C)c1C`, the IC50 in [9] was > 69.5 µM (inactive); in test [10], > 7.72 µM (active).
As to `O=C(C[C@@H]1CC[C@H]2[C@@H](COC[C@H](O)CN2Cc2ccc(Oc3ccccc3)cc2)O1)Nc1nccs1`, the results for the AC50 in test [11], in [12] and in test [13] were 7.07 µM (active), 43.9 µM (active) and 7.07 µM (active), respectively.
On to `Cc1ccccc1C1=C/C(=C(\SS/C(C(=O)c2ccc(OCC(=O)O)c(Cl)c2Cl)=C2\C=C(c3ccccc3C)SS2)C(=O)c2ccc(OCC(=O)O)c(Cl)c2Cl)SS1`, for which the IC50 in test [14] was 2.65 µM (active); in [15], 8.12 µM (active); in [16], 56.9 µM (active); in test [17], 9.29 µM (active); in test [19], 9.25 µM (active); in [20] it was 22.7 µM (inactive). The IC50 in [21] is 1.51 µM (active); in test [22], 16.1 µM (active); in [23], 2.48 µM (active); in test [24] it was 6.62 µM (active); in [25] it was 50.2 µM (inactive); in test [27], 61.1 µM (active). The AC50 in [18] is 6.35 µM (active); in [26], 63.2 µM (active).

By AC50 is commonly meant the midpoint of the concentration-response curve, whichever way the signal moves.
